# Values quoted from earlier work, collected in US20220168301A1, “METHODS FOR TREATING SYMPTOMATIC ORTHOSTATIC HYPOTENSION” (Cerecor Inc, priority 2019, published 2022).
# Tested on: patients with nOH
# Settings: Phase III clinical trials; cited from earlier work
smiles,measurement,value
"N[C@H](C(=O)O)[C@H](O)c1ccc(O)c(O)c1 [droxidopa, L-threo-3,4-dihydroxyphenyl-serine]",Standing systolic blood pressure,increase in standing systolic blood pressure
same,"Symptoms of nOH (dizziness, lightheadedness or feeling about to faint)",significant improvement in symptoms of nOH
